Each structure is given as a SMILES string. Some results are limits rather than exact numbers.

T1 sequence (P08659 whole entry, looked up): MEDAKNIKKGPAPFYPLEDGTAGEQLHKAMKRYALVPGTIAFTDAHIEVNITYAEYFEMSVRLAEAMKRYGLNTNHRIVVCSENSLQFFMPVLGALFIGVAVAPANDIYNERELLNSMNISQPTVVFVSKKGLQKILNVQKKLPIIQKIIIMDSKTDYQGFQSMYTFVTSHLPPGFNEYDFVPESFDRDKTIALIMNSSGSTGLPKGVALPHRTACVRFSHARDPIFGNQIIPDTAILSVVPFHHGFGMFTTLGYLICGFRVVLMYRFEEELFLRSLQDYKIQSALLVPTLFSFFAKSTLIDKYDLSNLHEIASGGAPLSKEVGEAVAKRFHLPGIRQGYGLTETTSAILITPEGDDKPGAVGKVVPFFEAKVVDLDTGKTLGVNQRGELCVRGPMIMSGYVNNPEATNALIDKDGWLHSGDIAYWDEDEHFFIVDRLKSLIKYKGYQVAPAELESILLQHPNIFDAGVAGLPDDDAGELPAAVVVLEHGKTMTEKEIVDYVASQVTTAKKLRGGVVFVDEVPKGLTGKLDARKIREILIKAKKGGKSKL

This assay has as its target T1, FLuc-C-HiBiT (Photinus pyralis, UniProt P08659).
T1 construct: firefly luciferase with C-terminal HiBiT tag, E. coli expressed
Nature of the assay: biochemical. As to conditions: enzyme activity, 10 uM ATP; read-out: IC50 or SDR50 (mM) / FLuc E. The protocol:
The enzyme activity of FLuc-N-HiBiT, FLuc-C-HiBiT, and FLuc-C-NLuc was measured similar to P. pyralis firefly luciferase (FLuc) as previously described. […] Compounds and controls were added to each plate as described in Supplementary Data 8 with a Hornet pintool system (Wako Automation). Compounds were incubated with respective enzymes for 30–60 min at room temperature protected from light and covered by solid metal lid to prevent evaporation. […] Luciferin was incubated with FLuc enzyme for 5 min before FLuc activity was then measured on a ViewLux CCD imager (PerkinElmer), with exposure times up to ten seconds with medium to high gain settings. Data were normalized to average no enzyme control as 100% enzyme inhibition and average DMSO neutral control. See Supplementary Table 4 for additional details. As a proof-of-concept target, we appended the sensor protein or corresponding α-peptide to either the N- or C-terminus of the target protein firefly luciferase (FLuc), an ATP cofactor-dependent monooxygenase (Supplementary Fig. 1a) having a broad, well-characterized and accessible ligand pharmacology. For initial characterization of the SDR concept, either NLuc or the 11 amino acid HiBiT tag (α-peptide) and complementary 18 kDa LgBiT subunit (ω-fragment), which self-assemble to reconstitute functional NLuc enzyme[24] were tested. In contrast to the ATP-dependent bioluminescent FLuc enzyme, NLuc generates a bright bioluminescence in an ATP-independent manner from the direct oxidation of furimazine (Supplementary Fig. 1b). […] Next, FLuc-C-NLuc, FLuc-N-HiBiT or FLuc-C-HiBiT were assayed with the same inhibitor in an SDR assay format by monitoring bioluminescence from NLuc or its reconstitution by α-complementation with LgBiT. Measurements of NLuc activity were made either in the absence or presence of the FLuc ATP cofactor, as NLuc bioluminescence is ATP-independent.
For `Cc1cc(-c2cccc(COc3ccc4c(cnn4CC[S+](C)(=O)[O-])c3)c2)ccn1` [NCGC00418048-01], the IC50 amounted to 18 µM.

As for `Cc1cccc(C(=O)Nc2ccc(-c3nc4ccccc4s3)cc2Cl)c1` [NCGC00137810-01], the IC50 was > 30 µM.

In the case of `Cc1cc(C)cc(Nc2nc(-c3ccccc3F)no2)c1` [NCGC00422314-01], the IC50 is 6.24 µM.

With `O=C(Nc1ccc2c(c1)OCCO2)N1CC(c2nc(CCOCC3CC3)no2)C1` [NCGC00464361-01], the IC50 came to 9.89 µM.

As for `CCCn1ncc(-c2nc(-c3ccncc3)no2)c1C` [NCGC00445972-01], the IC50 amounted to 8.81 µM.

Take `Cn1cc(-c2ccc(Cl)cc2)cc1C(=O)O` [NCGC00432667-01]: the IC50 was > 30 µM.

With `CC(=O)c1ccc(NC(=O)CCc2c(C)nc3cc(-c4ccc(Cl)cc4)nn3c2C)cc1` [NCGC00110026-01], the IC50 is 7.85 µM.

On to `Cc1cccc(NC(=O)c2c(N)sc3c2CCC(C)C3)c1` (centres unmarked) [NCGC00099772-01], for which the IC50 came to 9.89 µM.

As for `CN(c1ccccc1)c1ccc2ncn(C3CC3)c(=O)c2n1` [NCGC00414800-01], the IC50 was found to be 5.68 µM.

As to `Cc1nc2cc(-c3cccc(F)c3)nn2c(C)c1CCC(=O)NC1CCCCC1` [NCGC00110095-01], the IC50 worked out at 8.81 µM.

With `Fc1ccc(-c2cc3c(cn2)CN(Cc2ccncc2)CCN3)cc1Cl` [NCGC00411256-01], the IC50 was found to be 18 µM.

As for `COCCNc1ncc(-c2cccc(NC(C)=O)c2)c2c1OCC2` [NCGC00412815-01], the IC50 came out at 16.1 µM.

In the case of `O=C(Nc1ccccc1)Nc1ccc2n(c1=O)C[C@H]1C[C@@H]2CN(C(=O)c2ccccc2)C1` [NCGC00397999-01], the IC50 is 18 µM.

Consider `c1ccc2cc(-c3nc(C4CCOC4)no3)ncc2c1` (centres unmarked) [NCGC00447332-01], for which the IC50 came to 17.6 µM.

As to `O=C(O)c1cccc(-c2noc(-c3ccc(C(F)(F)F)cc3)n2)c1` [NCGC00168770-01], the IC50 was found to be 0.00351 µM.

For the compound `COc1ccc(-c2noc(Nc3ccc4c(c3)OCCO4)n2)cc1` [NCGC00422336-01], the IC50 was 1.57 µM.

Turning to `COc1ccc(-c2ccc(CN3CC(C)(NC(C)=O)C3)s2)cn1` [NCGC00410343-01], the IC50 was found to be 20.2 µM.

On to `CC1CCc2nc3ncn(Cc4ccc(Cl)cc4)c(=O)c3cc2C1` (centres unmarked) [NCGC00132725-01], for which the IC50 is > 30 µM.

In the case of `CC(=O)NC1(C)CN(Cc2ccc(-c3ccc(Oc4ccccc4)cc3)s2)C1` [NCGC00410351-01], the IC50 stood at 25.5 µM.

Regarding `c1ccc(CCCNc2nccc(-c3ccccn3)n2)nc1` [NCGC00443451-01], the IC50 was > 30 µM.

Take `COc1ccc(/C=C/c2ccc3c(c2)C(=O)N2CC[C@H](NC(=O)COCC(=O)O)[C@H]2C(=O)N3)cc1` [NCGC00421238-01]: the IC50 came out at 9.89 µM.

For `Cn1c(C(=O)Nc2ccc3c(c2)OCO3)cc2c1CCN(Cc1cccc(F)c1)C2` [NCGC00430636-01], the IC50 is > 30 µM.

In the case of `COc1cccc(Nc2ccc(CN3CCC(C)(NC(C)=O)C3)cc2)c1` (centres unmarked) [NCGC00410471-01], the IC50 was 20.2 µM.

For `Fc1cc(Nc2cnc3ccc(-c4ccccc4)nn23)cc(N2CCOCC2)c1` [NCGC00412489-01], the IC50 turned out to be 16.1 µM.

Take `O=C1c2cnc(-c3cc4ccccc4o3)nc2OCCN1Cc1ccccc1` [NCGC00413600-01]: the IC50 was determined as 1.61 µM.

On to `Cc1c(-c2ccc(F)cc2)[nH]c2ccc(CNC(=O)CN3CCOC3=O)cc12` [NCGC00442659-01], for which the IC50 is 11.1 µM.

As to `Cc1ccc(-c2ncc3c(n2)OCCN(C)C3=O)c(C)c1` [NCGC00413561-01], the IC50 amounted to 22.6 µM.

As to `CC(C)c1cnc(N2CCC(COc3ccc4c(cnn4CCC(=O)O)c3)CC2)nc1` [NCGC00418130-01], the IC50 was determined as 20.2 µM.

Turning to `O=C1OCCN1CCNc1ccc(-c2nc(-c3ccccc3F)no2)cn1` [NCGC00428584-01], the IC50 was 12.4 µM.

As for `Cc1ccc2nc(-c3cccc(NC(=O)CSc4ccc(Cl)cc4)c3)oc2c1` [NCGC00102431-01], the IC50 came to 3.51 µM.

For the compound `Cc1ccc(Cl)cc1-n1ncc2c(N3CCC(C(N)=O)CC3)ncnc21` [NCGC00138952-01], the IC50 was > 30 µM.

As to `COc1ccc(Nc2nc(-c3cccc(OC)c3)no2)cc1` [NCGC00422374-01], the IC50 is 7.85 µM.

Consider `COc1ccc(-c2cc(N3CCCC(NC(=O)c4cccc(OC)c4)C3)[nH]n2)cc1` (centres unmarked) [NCGC00437636-01], for which the IC50 is 7.85 µM.

As to `Cc1ccccc1CN1CC[C@H](c2nc3ccccc3s2)C1` [NCGC00391192-01], the IC50 was 18 µM.

With `Cc1cc(F)ccc1OC1(C(=O)O)CCN(c2ncnc3[nH]cnc23)CC1` [NCGC00438333-01], the IC50 was > 30 µM.

For `CCc1ccccc1NC(=O)c1nnn(-c2ccc(F)cc2)c1C` [NCGC00104938-01], the IC50 was found to be 11.1 µM.

As for `COc1cccc(-n2cc(CN(C)c3ncncn3)cn2)c1` [NCGC00424283-01], the IC50 was > 30 µM.

As to `Cc1c(NC(=O)c2ccc(I)o2)cccc1-c1nc2ccccc2s1` [NCGC00595010-01], the IC50 amounted to 7 µM.

Consider `Cc1ccc(-c2noc([C@@H]3Cc4[nH]cnc4CN3C(=O)Nc3cccc(F)c3)n2)cc1` [NCGC00401633-01], for which the IC50 is 20.2 µM.

For `O=C(c1ccc(C(F)(F)F)cc1)N1CCc2nc(-c3ccccc3)nc(-c3ccc(Cl)cc3)c2C1` [NCGC00480461-01], the IC50 is > 30 µM.

On to `CC(=O)Oc1ccccc1C(=O)Nc1ccc(-c2nc3ccc(C)cc3s2)cc1` [NCGC00596510-01], for which the IC50 was 8.81 µM.

As to `CC(C)(C)c1ccc(C(=O)Nc2ccc([C@H]3OCC(=O)N[C@@H]3CO)cc2)cc1` [NCGC00396656-01], the IC50 stood at 16.1 µM.

In the case of `COc1ccc(CC(=O)Nc2ccc(-c3nc4ccccc4s3)cc2Cl)cc1` [NCGC00137808-01], the IC50 is > 30 µM.

Consider `Cc1nc2ccc(-c3nc(C4CCOC4)no3)cc2s1` (centres unmarked) [NCGC00446448-01], for which the IC50 was determined as 11.1 µM.

Turning to `CCCNc1cc(N2CCC(CCC(=O)Nc3ccc4c(c3)OCCO4)CC2)ncn1` [NCGC00470245-01], the IC50 came to 9.89 µM.

As to `C#CCn1c(/C=C/c2ccc(Cl)cc2)nc2ccccc21` [NCGC00114864-01], the IC50 was 0.624 µM.

`Cc1cccc(OCCn2nnc3sc4c(c3c2=O)CCCC4)c1` [NCGC00117282-01]: the IC50 was found to be 12.4 µM.

For the compound `Cc1cncc(C(=O)N2CCOc3c(O)cc(-c4nc5ccccc5s4)cc3C2)c1` [NCGC00433624-01], the IC50 was > 30 µM.

As to `O=C(COc1ccccc1F)Nc1ccc(-c2nc3ccccc3s2)cc1` [NCGC00118994-02], the IC50 was > 30 µM.

Consider `COc1ccccc1-c1nc2cc(NC(=O)c3ccccc3Cl)ccc2o1` [NCGC00098320-01], for which the IC50 worked out at 11.1 µM.

As to `COc1cccc(CN2CCc3c(cc(C(=O)Nc4cc(C)ccc4OC)n3C)C2)c1` [NCGC00430592-01], the IC50 is > 30 µM.

Turning to `COc1ccc(-c2nc3ccccc3s2)cc1NC(=O)c1cccc([N+](=O)[O-])c1C` [NCGC00102361-01], the IC50 came to 6.24 µM.

For the compound `CC(=O)NC1(C)CCN(Cc2cccc(-c3ccc4ccccc4c3)c2)C1` (centres unmarked) [NCGC00410355-01], the IC50 came to 11.4 µM.

Regarding `COc1ccc(NC(=O)Nc2ccc(C)n(CC(=O)N3CCCC(C)C3)c2=O)cc1` (centres unmarked) [NCGC00430838-01], the IC50 is 7.85 µM.

Take `CCc1ccccc1Nc1nc(-c2cccc(OC)c2OC)no1` [NCGC00422354-01]: the IC50 worked out at 11.1 µM.

For the compound `Nc1nn(-c2ccccc2)nc1C(=O)OCc1ccccc1` [NCGC00102837-01], the IC50 was > 30 µM.

In the case of `Cc1ccc(-n2ncc3c(N4CCCCC4)ncnc32)cc1Cl` [NCGC00139209-01], the IC50 is 0.785 µM.

For `c1ccc(Nc2ncc(-c3cccnc3)c3c2OCC3)cc1` [NCGC00412806-01], the IC50 turned out to be 22.6 µM.

For `O=C(O)c1ccccc1-c1nc2ccccc2s1` [NCGC00645508-01], the IC50 is > 30 µM.

For the compound `COc1ccc(-c2cc(N3CCCC(NC(=O)c4cc(OC)c(OC)c(OC)c4)C3)[nH]n2)cc1` (centres unmarked) [NCGC00437614-01], the IC50 came out at 5.56 µM.

Turning to `Cc1ccc2nc(-c3ccc(NC(=O)C(F)(F)F)cc3)sc2c1` [NCGC00100068-01], the IC50 worked out at 0.785 µM.

Turning to `COc1cccc(-c2nc3cc(NC(=O)c4ccc(F)c(C#N)c4)ccc3s2)c1` [NCGC00350766-01], the IC50 was > 30 µM.

Consider `O=C(Nc1cnc(-c2ccccc2)nc1)C1CCCCC1` [NCGC00432861-01], for which the IC50 came out at 1.97 µM.

On to `CCc1ccc2nc(N3CCC(C(=O)O)CC3)sc2c1` [NCGC00112332-01], for which the IC50 was determined as 0.0351 µM.

Turning to `Brc1ccc(-c2cn3cc(Cc4ccccc4)sc3n2)cc1` [NCGC00102136-01], the IC50 amounted to 0.881 µM.

Regarding `c1ccc(COc2ccccc2-c2nc3ccccc3s2)cc1` [NCGC00167623-01], the IC50 was 12.4 µM.

For `COc1c(C)cccc1C(=O)Nc1ccc(-c2nc3ccccc3s2)c(Cl)c1` [NCGC00102004-01], the IC50 was > 30 µM.

Regarding `CC(C)(C)CN1CCNc2cc(Nc3ccccc3)ncc2C1` [NCGC00411260-01], the IC50 amounted to 7.18 µM.

The values above are taken from article PMC12064818, “A general assay platform to study protein pharmacology using ligand-dependent structural dynamics” (Nature Communications, 2025).
